Measurements reported in patent publication US20260217767A1, “NOVEL A4B7 THIOETHER PEPTIDE DIMER ANTAGONISTS” (Protagonist Therapeutics, Inc., priority 2014, published 2026).
Like-named read-outs stand apart in the source and are kept apart here. *1 amine or outer side, *2 acyl side, *3 side chain or, on linkers, in order; H or OH if unused. Where a SMILES comes first, the peptide text is derived from it. Bridges are numbered along the chain shown (N, C = ends). Roman numbers before positions name the chains, in order. [ ]: non-standard residue; d: D form. Phe(4-CF3) = N[C@@H](Cc1ccc(C(F)(F)F)cc1)C(=O)O; 1Nal = N[C@@H](Cc1cccc2ccccc12)C(=O)O; Diglycolyl = O=C(COCC(=O)[*:2])[*:1]; NMeR = CN[C@@H](CCCNC(=N)N)C(=O)O; X1 = O=C(c1ccccc1C[*:2])[*:1]; Pen = CC(C)(S)[C@H](N)C(=O)O

Biological target: T1, rh integrin α4β7 (Homo sapiens, UniProt P13612+P26010)
T1 construct: purchased R&D Systems 5397-A30
T1 sequence (P13612 34-977 limits assumed): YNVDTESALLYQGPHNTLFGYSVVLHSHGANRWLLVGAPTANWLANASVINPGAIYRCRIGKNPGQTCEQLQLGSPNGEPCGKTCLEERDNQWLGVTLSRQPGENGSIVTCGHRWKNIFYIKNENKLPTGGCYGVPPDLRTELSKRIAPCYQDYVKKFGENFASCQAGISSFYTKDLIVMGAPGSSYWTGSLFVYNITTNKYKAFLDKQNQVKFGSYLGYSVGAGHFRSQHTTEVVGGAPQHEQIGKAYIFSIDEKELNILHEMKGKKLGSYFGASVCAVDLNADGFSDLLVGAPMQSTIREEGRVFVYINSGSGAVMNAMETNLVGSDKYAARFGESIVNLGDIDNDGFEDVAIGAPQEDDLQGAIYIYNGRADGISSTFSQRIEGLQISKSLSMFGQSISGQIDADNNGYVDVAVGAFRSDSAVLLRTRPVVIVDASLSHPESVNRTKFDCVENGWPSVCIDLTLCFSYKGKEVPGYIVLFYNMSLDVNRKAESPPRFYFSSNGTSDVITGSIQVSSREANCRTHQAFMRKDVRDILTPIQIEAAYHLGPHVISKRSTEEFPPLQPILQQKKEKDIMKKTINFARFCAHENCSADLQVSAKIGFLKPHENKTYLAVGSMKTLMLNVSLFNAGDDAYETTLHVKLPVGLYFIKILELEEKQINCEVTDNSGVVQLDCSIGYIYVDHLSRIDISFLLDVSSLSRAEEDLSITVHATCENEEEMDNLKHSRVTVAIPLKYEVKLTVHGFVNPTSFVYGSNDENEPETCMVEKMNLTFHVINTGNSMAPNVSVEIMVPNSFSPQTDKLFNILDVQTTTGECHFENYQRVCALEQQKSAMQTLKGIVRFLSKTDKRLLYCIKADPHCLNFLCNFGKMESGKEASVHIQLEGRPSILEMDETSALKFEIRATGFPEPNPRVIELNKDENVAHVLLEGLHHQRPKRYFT
T1 sequence (P26010 20-723 limits assumed): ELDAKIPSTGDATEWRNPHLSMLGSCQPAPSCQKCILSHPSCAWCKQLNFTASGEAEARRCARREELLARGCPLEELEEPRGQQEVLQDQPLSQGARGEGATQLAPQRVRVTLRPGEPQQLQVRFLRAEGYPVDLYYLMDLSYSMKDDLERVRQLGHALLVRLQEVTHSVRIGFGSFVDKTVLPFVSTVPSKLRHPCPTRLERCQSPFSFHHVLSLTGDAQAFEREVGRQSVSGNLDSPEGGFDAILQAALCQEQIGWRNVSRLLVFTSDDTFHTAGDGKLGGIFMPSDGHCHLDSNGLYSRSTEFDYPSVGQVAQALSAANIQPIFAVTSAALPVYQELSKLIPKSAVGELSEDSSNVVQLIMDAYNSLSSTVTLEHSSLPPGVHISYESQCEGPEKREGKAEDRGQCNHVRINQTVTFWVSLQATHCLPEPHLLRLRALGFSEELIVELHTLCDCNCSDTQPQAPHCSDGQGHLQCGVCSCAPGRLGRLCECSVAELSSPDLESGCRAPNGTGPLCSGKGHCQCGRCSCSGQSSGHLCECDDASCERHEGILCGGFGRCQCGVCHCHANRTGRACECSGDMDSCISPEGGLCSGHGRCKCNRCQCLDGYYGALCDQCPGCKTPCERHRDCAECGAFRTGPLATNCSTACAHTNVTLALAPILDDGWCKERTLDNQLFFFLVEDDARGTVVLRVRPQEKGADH
Test: α4β7-MAdCAM Competition ELISA
Format: binding
Details: read-out: ELISA A4B7
Method in brief: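 Recombinant human α4β7 captured on nickel-coated plates, then incubated 1 h at room temperature with serially diluted peptides (final top 10 μM) and 10 nM final MAdCAM-1 in Tris pH 7.6 buffer with 1 mM MnCl2 or MgCl2. Bound MAdCAM-1 detected with anti-human IgG1-HRP and TMB, absorbance at 450 nm.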

[1] = thioether monomer peptides, Table 6
[2] = thioether peptide dimers, Table 7

`CC(=O)NCCCC[C@@H](NC(=O)[C@H](CCC(=O)O)NC(=O)[C@H](Cc1c[nH]c2ccccc12)NC(=O)[C@H]1NC(=O)[C@H](CC(C)C)NC(=O)[C@H]([C@@H](C)O)NC(=O)[C@H](CC(=O)O)NC(=O)[C@H](CO)NC(=O)[C@H](CCCNC(=N)N)N(C)C(=O)c2ccccc2CSC1(C)C)C(N)=O` [compound 80] (HELM PEPTIDE1{[meR].S.D.T.L.[Pen].W.E.[dK].[am]}|PEPTIDE2{[ac]}|CHEM1{[O=C(c1ccccc1C[*:2])[*:1]]}$PEPTIDE1,PEPTIDE2,9:R3-1:R2|PEPTIDE1,CHEM1,1:R1-1:R1|PEPTIDE1,CHEM1,6:R3-1:R2$$$V2.0) gave an IC50 [1] of less than 25 nM.
`CC(C)C[C@@H]1NC(=O)[C@H]([C@@H](C)O)NC(=O)[C@H](CC(=O)O)NC(=O)[C@H](CO)NC(=O)[C@H](CCCNC(=N)N)N(C)C(=O)c2ccccc2CSC(C)(C)[C@@H](C(=O)N[C@@H](Cc2c[nH]c3ccccc23)C(=O)N[C@H](CCC(=O)O)C(=O)N[C@@H](CN)C(N)=O)NC1=O` [compound 94] (HELM PEPTIDE1{[meR].S.D.T.L.[Pen].W.[dE].[NC[C@H](N[*:1])C(=O)[*:2]].[am]}|CHEM1{[O=C(c1ccccc1C[*:2])[*:1]]}$PEPTIDE1,CHEM1,1:R1-1:R1|PEPTIDE1,CHEM1,6:R3-1:R2$$$V2.0) showed an IC50 [1] of less than 25 nM.
`CC(C)C[C@@H]1NC(=O)[C@H]([C@@H](C)O)NC(=O)[C@H](CC(=O)O)NC(=O)[C@H](CO)NC(=O)[C@H](CCCNC(=N)N)N(C)C(=O)c2ccccc2CSC(C)(C)[C@@H](C(=O)N[C@@H](Cc2cccc3ccccc23)C(=O)N[C@@H](CCC(=O)O)C(=O)N[C@H](CCCCNC(=O)COCC(=O)NCCCC[C@@H](NC(=O)[C@H](CCC(=O)O)NC(=O)[C@H](Cc2cccc3ccccc23)NC(=O)[C@H]2NC(=O)[C@H](CC(C)C)NC(=O)[C@H]([C@@H](C)O)NC(=O)[C@H](CC(=O)O)NC(=O)[C@H](CO)NC(=O)[C@H](CCCNC(=N)N)N(C)C(=O)c3ccccc3CSC2(C)C)C(N)=O)C(N)=O)NC1=O` [compound 167] (I: [NMeR]SDTL[Pen][1Nal]E[dK]-NH2 / II: [NMeR]SDTL[Pen][1Nal]E[dK]-NH2; linker I:9-II:9 via Diglycolyl; linker I:N-I:6, II:N-II:6 via X1) showed an IC50 [2] of less than 25 nM.
Compound `CC(C)C[C@@H]1NC(=O)[C@H]([C@@H](C)O)NC(=O)[C@H](CC(=O)O)NC(=O)[C@H](CO)NC(=O)[C@H](CCCNC(=N)N)N(C)C(=O)c2ccccc2CSC(C)(C)[C@@H](C(=O)N[C@@H](Cc2ccc3ccccc3c2)C(=O)N[C@H](CCC(=O)O)C(N)=O)NC1=O` [compound 114] (HELM PEPTIDE1{[meR].S.D.T.L.[Pen].[O=C([C@H](Cc1ccc2ccccc2c1)N[*:1])[*:2]].[dE].[am]}|CHEM1{[O=C(c1ccccc1C[*:2])[*:1]]}$PEPTIDE1,CHEM1,1:R1-1:R1|PEPTIDE1,CHEM1,6:R3-1:R2$$$V2.0) has an IC50 [1] of less than 25 nM.
For `CC(=O)NCCCC[C@@H](NC(=O)[C@H](CCC(=O)O)NC(=O)[C@H](Cc1cccc2ccccc12)NC(=O)[C@H]1NC(=O)[C@H](CC(C)C)NC(=O)[C@H]([C@@H](C)O)NC(=O)[C@H](CC(=O)O)NC(=O)[C@H](CO)NC(=O)[C@H](CCCNC(=N)N)N(C)C(=O)c2ccccc2CSC1(C)C)C(N)=O` [compound 89] (HELM PEPTIDE1{[meR].S.D.T.L.[Pen].[O=C([C@H](Cc1cccc2ccccc12)N[*:1])[*:2]].E.[dK].[am]}|PEPTIDE2{[ac]}|CHEM1{[O=C(c1ccccc1C[*:2])[*:1]]}$PEPTIDE1,PEPTIDE2,9:R3-1:R2|PEPTIDE1,CHEM1,1:R1-1:R1|PEPTIDE1,CHEM1,6:R3-1:R2$$$V2.0), the IC50 [1] was less than 25 nM.
For `CC(=O)NCCCC[C@@H](NC(=O)[C@@H](CCC(=O)O)NC(=O)[C@H](Cc1c[nH]c2ccccc12)NC(=O)[C@H]1NC(=O)[C@H](CC(C)C)NC(=O)[C@H]([C@@H](C)O)NC(=O)[C@H](CC(=O)O)NC(=O)[C@H](CO)NC(=O)[C@H](CCCNC(=N)N)N(C)C(=O)c2ccccc2CSC1(C)C)C(N)=O` [compound 81] (HELM PEPTIDE1{[meR].S.D.T.L.[Pen].W.[dE].[dK].[am]}|PEPTIDE2{[ac]}|CHEM1{[O=C(c1ccccc1C[*:2])[*:1]]}$PEPTIDE1,PEPTIDE2,9:R3-1:R2|PEPTIDE1,CHEM1,1:R1-1:R1|PEPTIDE1,CHEM1,6:R3-1:R2$$$V2.0), the IC50 [1] was less than 25 nM.
`CC(C)C[C@@H]1NC(=O)[C@H]([C@@H](C)O)NC(=O)[C@H](CC(=O)O)NC(=O)[C@H](CO)NC(=O)[C@H](CCCNC(=N)N)N(C)C(=O)c2ccccc2CSC(C)(C)[C@@H](C(=O)N[C@@H](Cc2c[nH]c3ccccc23)C(=O)N[C@@H](CCC(=O)O)C(=O)N[C@@H](CN)C(N)=O)NC1=O` [compound 92] (HELM PEPTIDE1{[meR].S.D.T.L.[Pen].W.E.[NC[C@H](N[*:1])C(=O)[*:2]].[am]}|CHEM1{[O=C(c1ccccc1C[*:2])[*:1]]}$PEPTIDE1,CHEM1,1:R1-1:R1|PEPTIDE1,CHEM1,6:R3-1:R2$$$V2.0) showed an IC50 [1] of less than 25 nM.
Work on `CC(=O)NCCCC[C@@H](NC(=O)[C@@H](CCC(=O)O)NC(=O)[C@H](Cc1ccc(O)cc1)NC(=O)[C@H]1NC(=O)[C@H](CC(C)C)NC(=O)[C@H]([C@@H](C)O)NC(=O)[C@H](CC(=O)O)NC(=O)[C@H](CO)NC(=O)[C@H](CCCNC(=N)N)N(C)C(=O)c2ccccc2CSC1(C)C)C(N)=O` [compound 91] (HELM PEPTIDE1{[meR].S.D.T.L.[Pen].Y.[dE].[dK].[am]}|PEPTIDE2{[ac]}|CHEM1{[O=C(c1ccccc1C[*:2])[*:1]]}$PEPTIDE1,PEPTIDE2,9:R3-1:R2|PEPTIDE1,CHEM1,1:R1-1:R1|PEPTIDE1,CHEM1,6:R3-1:R2$$$V2.0) yielded an IC50 [1] of less than 25 nM.
`CC(C)C[C@@H]1NC(=O)[C@H]([C@@H](C)O)NC(=O)[C@H](CC(=O)O)NC(=O)[C@H](CO)NC(=O)[C@H](CCCNC(=N)N)N(C)C(=O)c2ccccc2CSC(C)(C)[C@@H](C(=O)N[C@@H](Cc2ccccc2)C(=O)N[C@H](CCC(=O)O)C(=O)N[C@H](CCCCNC(=O)COCC(=O)NCCCC[C@@H](NC(=O)[C@@H](CCC(=O)O)NC(=O)[C@H](Cc2ccccc2)NC(=O)[C@H]2NC(=O)[C@H](CC(C)C)NC(=O)[C@H]([C@@H](C)O)NC(=O)[C@H](CC(=O)O)NC(=O)[C@H](CO)NC(=O)[C@H](CCCNC(=N)N)N(C)C(=O)c3ccccc3CSC2(C)C)C(=O)O)C(=O)O)NC1=O` [compound 204] (I: [NMeR]SDTL[Pen]F[dE][dK]-OH / II: [NMeR]SDTL[Pen]F[dE][dK]-OH; linker I:9-II:9 via Diglycolyl; linker I:N-I:6, II:N-II:6 via X1) was tested, and the IC50 [2] was less than 25 nM.
Compound `CC(C)C[C@@H]1NC(=O)[C@H]([C@@H](C)O)NC(=O)[C@H](CC(=O)O)NC(=O)[C@H](CO)NC(=O)[C@H](CCCNC(=N)N)N(C)C(=O)c2ccccc2CSC(C)(C)[C@@H](C(=O)N[C@@H](Cc2ccc(C(F)(F)F)cc2)C(=O)N[C@@H](CCC(=O)O)C(=O)N[C@H](CCCCNC(=O)COCC(=O)NCCCC[C@@H](NC(=O)[C@H](CCC(=O)O)NC(=O)[C@H](Cc2ccc(C(F)(F)F)cc2)NC(=O)[C@H]2NC(=O)[C@H](CC(C)C)NC(=O)[C@H]([C@@H](C)O)NC(=O)[C@H](CC(=O)O)NC(=O)[C@H](CO)NC(=O)[C@H](CCCNC(=N)N)N(C)C(=O)c3ccccc3CSC2(C)C)C(N)=O)C(N)=O)NC1=O` [compound 166] (I: [NMeR]SDTL[Pen][Phe(4-CF3)]E[dK]-NH2 / II: [NMeR]SDTL[Pen][Phe(4-CF3)]E[dK]-NH2; linker I:9-II:9 via Diglycolyl; linker I:N-I:6, II:N-II:6 via X1) has an IC50 [2] of less than 25 nM.
